From patent publication US20250197420A1, “MACROCYCLIC COMPOUNDS, COMPOSITIONS, AND METHODS OF USING THEREOF” (Sionna Therapeutics Inc., priority 2022, published 2025)

Key:
[1] = molecular target: T1, Purified recombinant NBD1 (Homo sapiens, UniProt P13569); assay: Aggregation analysis using differential static light scattering (DSLS): thermal stability of NBD1; format: binding; settings: NBD1 0.2 mg/ml; Tagg of compound well minus average Tagg of DMSO control wells
T1 construct: Purified recombinant NBD1 was produced using previously described methods; made in house
Method in brief: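 Recombinant NBD1 at 0.2 mg/ml in Tris/NaCl/MgCl2 buffer with 2 mM ATP, 2 mM DTT, 1% glycerol, pH 7.6, was incubated with compound and heated at 1 °C/min to 70 °C while static light scattering was monitored. Tagg was taken from the curve inflection point and reported as ΔTagg relative to DMSO controls.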

[2] = tested on: Primary human bronchial epithelial cells from a ΔF508 homozygous CF donor (CF-HBE cells); assay: TECC24 recording of CFTR-mediated transepithelial chloride transport, AUC fold over benchmark VX-809 @10 μM; format: cell-based; settings: 48 hours incubation, AUC of forskolin-stimulated IEQ
Description: The effects of a test agent on CFTR-mediated transepithelial chloride transport is measured using TECC24 recording analysis. Test agents are solubilized in DMSO. Solubilized test agents are mixed with incubation medium containing DMEM/F12, Ultroser G (0.5%; Crescent Chemical, catalog #67042), Hyclone Fetal Clone II (2%; GE Healthcare, catalog #SH30066.02), bovine brain extract (0.25%; Lonza, catalog #CC-4098), insulin ([…]), IL-13 (10 ng/mL), hydrocortisone (20 nM), transferrin ([…]), triiodothyronine (500 nM), ethanolamine (250 nM), epinephrine (1.5 μM), phosphoethanolamine (250 nM), and retinoic acid (10 nM). Primary human bronchial epithelial cells from a ΔF508 homozygous CF donor (CF-HBE cells; from University of North Carolina Cystic Fibrosis Tissue Procurement Center), grown on Transwell HTS 24-well cell culture inserts (Costar, catalog #3378), are exposed to test agents or controls dissolved in incubation medium. The CF-HBE cells are cultured at 36.5° C. for 48 hours before TECC24 recordings are performed in the presence or absence of test agent, a positive control or vehicle (DMSO).
Following incubation, the transwell cell culture inserts containing the test agent or control-treated CF-HBE cells are loaded onto a TECC24 apparatus (TECC v7 or MTECC v2; EP Design) to record the transepithelial voltage (VT) and resistance (TEER) using 4 AgCl electrodes per well configured in current-clamp mode. The apical and basolateral bath solutions both contain (in mM) 140 NaCl, 5 KCl, 2 CaCl2), 1 MgCl2, 10 Hepes, and 10 glucose (adjusted to pH 7.4 with NaOH). To inhibit basal Na+ absorption, the ENaC inhibitor benzamil (10 μM) is added to the bath. Then, the adenylate cyclase activator, forskolin (10 μM), is added to the bath to activate CFTR. The forskolin-stimulated Cl− transport is halted by addition of CFTR inhibitor-172 (20 μM) to the bath at the end of the experiment to confirm specificity. VT and TEER recordings are digitally acquired at routine intervals using TECC or MTECC software (EP Design). VT and TEER are transformed into equivalent transepithelial Cl− current (IEQ), and the Area Under the Curve (AUC) of the IEQ time course between forskolin and CFTR inhibitor-172 addition is generated using Excel (Microsoft). Efficacy is expressed as the ratio of the test agent AUC divided by vehicle AUC. EC50s based on AUC are generated using the non-linear regression log(agonist) vs. response function in Prism software (Graphpad) with HillSlope fixed=1.
If a test agent increases the AUC of the forskolin-stimulated IEQ relative to VX-809 in CF-HBE cells, and this increase is inhibited by CFTR inhibitor-172, then the test agent is considered a CFTR corrector. TECC assay efficacy is expressed as the ratio of the test agent AUC divided by VX-809 AUC. As set forth in Table 2 below, a TECC value less than 3 is marked “A”; a value between 3 and 6 is marked “B”; a value between 6 and 20 is marked “C”.

T1 sequence (P13569 423-646 limits assumed): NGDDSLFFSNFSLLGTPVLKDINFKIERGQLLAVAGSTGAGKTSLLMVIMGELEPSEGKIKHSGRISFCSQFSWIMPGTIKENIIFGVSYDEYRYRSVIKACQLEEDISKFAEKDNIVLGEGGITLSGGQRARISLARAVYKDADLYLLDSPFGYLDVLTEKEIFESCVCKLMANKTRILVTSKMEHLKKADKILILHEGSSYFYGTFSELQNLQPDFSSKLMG

| Compound | DSLS (ΔTagg) [1] | TECC (test agent AUC divided by VX-809 AUC) [2] |
| --- | --- | --- |
| CNC(=O)CCc1cccc(C2(C)CCCC(C)(C)CN(C)C(=O)CCc3c(c(F)cc4[nH]ccc34)Oc3ccc(F)c(c3)-c3ncc2[nH]3)c1 (single isomer, unassigned) [Compound 53A, 3-[3-(23,29-difluoro-6,10,10,12-tetramethyl-13-oxo-25-oxa-3,12,20,31-tetrazapentacyclo-[24.3.1.12,5.016,24.017,21]hentriaconta-1(30),2,4,16,18,21,23,26,28-nonaen-6-yl)phenyl]-N-methyl-propanamide] | A (an ΔTagg value less than or equal to 5 °C is marked “A”) | A (a TECC value less than 3 is marked “A”) |
| CNC(=O)CCc1cccc(C2(C)CCCC(C)(C)CN(C)C(=O)CCc3c(c(F)cc4[nH]ccc34)Oc3ccc(F)c(c3)-c3ncc2[nH]3)c1 (single isomer, unassigned) [Compound 53B, 3-[3-(23,29-difluoro-6,10,10,12-tetramethyl-13-oxo-25-oxa-3,12,20,31-tetrazapentacyclo-[24.3.1.12,5.016,24.017,21]hentriaconta-1(30),2,4,16,18,21,23,26,28-nonaen-6-yl)phenyl]-N-methyl-propanamide] | B (a value above 5 °C and less than or equal to 10 °C is marked “B”) | A (a TECC value less than 3 is marked “A”) |
| CN1CC(C)(C)CCCC(C)(c2cccc(CCC(=O)NO)c2)c2cnc([nH]2)-c2cc(ccc2F)Oc2c(F)cc3[nH]ccc3c2CCC1=O (single isomer, unassigned) [Compound 54, 3-[3-(23,29-difluoro-6,10,10,12-tetramethyl-13-oxo-25-oxa-3,12,20,31-tetrazapentacyclo-[24.3.1.12,5.016,24.017,21]hentriaconta-1(30),2,4,16,18,21,23,26,28-nonaen-6-yl)phenyl]propanehydroxamic acid] | A (an ΔTagg value less than or equal to 5 °C is marked “A”) | A (a TECC value less than 3 is marked “A”) |
| CN1CC(C)(C)CCCC(C)(c2cccc(CCC(=O)NO)c2)c2cnc([nH]2)-c2cc(ccc2F)Oc2c(F)cc3[nH]ccc3c2CCC1=O (single isomer, unassigned) [Compound 55, 3-[3-(23,29-difluoro-6,10,10,12-tetramethyl-13-oxo-25-oxa-3,12,20,31-tetrazapentacyclo-[24.3.1.12,5.016,24.017,21]hentriaconta-1(30),2,4,16,18,21,23,26,28-nonaen-6-yl)phenyl]propanehydroxamic acid] | B (a value above 5 °C and less than or equal to 10 °C is marked “B”) | A (a TECC value less than 3 is marked “A”) |
| COCCONC(=O)CCc1cccc(C2(C)CCCC(C)(C)CN(C)C(=O)CCc3c(c(F)cc4[nH]ccc34)Oc3ccc(F)c(c3)-c3ncc2[nH]3)c1 (single isomer, unassigned) [Compound 56, 3-[3-(23,29-difluoro-6,10,10,12-tetramethyl-13-oxo-25-oxa-3,12,20,31-tetrazapentacyclo[24.3.1.12,5.016,24.017,21]hentriaconta-1(30),2,4,16,18,21,23,26,28-nonaen-6-yl)phenyl]-N-(2-methoxyethoxy)propanamide] | A (an ΔTagg value less than or equal to 5 °C is marked “A”) | A (a TECC value less than 3 is marked “A”) |
| COCCONC(=O)CCc1cccc(C2(C)CCCC(C)(C)CN(C)C(=O)CCc3c(c(F)cc4[nH]ccc34)Oc3ccc(F)c(c3)-c3ncc2[nH]3)c1 (single isomer, unassigned) [Compound 57, 3-[3-(23,29-difluoro-6,10,10,12-tetramethyl-13-oxo-25-oxa-3,12,20,31-tetrazapentacyclo[24.3.1.12,5.016,24.017,21]hentriaconta-1(30),2,4,16,18,21,23,26,28-nonaen-6-yl)phenyl]-N-(2-methoxyethoxy)propanamide] | B (a value above 5 °C and less than or equal to 10 °C is marked “B”) | B (a value between 3 and 6 is marked “B”) |
| CN1CC(C)(C)CCCC(C)(c2cccc(CCC(=O)NOCCO)c2)c2cnc([nH]2)-c2cc(ccc2F)Oc2c(F)cc3[nH]ccc3c2CCC1=O (single isomer, unassigned) [Compound 58, 3-[3-(23,29-difluoro-6,10,10,12-tetramethyl-13-oxo-25-oxa-3,12,20,31-tetrazapentacyclo[24.3.1.12,5.016,24.017,21]hentriaconta-1(30),2,4,16,18,21,23,26,28-nonaen-6-yl)phenyl]-N-(2-hydroxyethoxy)propanamide] | A (an ΔTagg value less than or equal to 5 °C is marked “A”) | A (a TECC value less than 3 is marked “A”) |
| CN1CC(C)(C)CCCC(C)(c2cccc(CCC(=O)NOCCO)c2)c2cnc([nH]2)-c2cc(ccc2F)Oc2c(F)cc3[nH]ccc3c2CCC1=O (single isomer, unassigned) [Compound 59, 3-[3-(23,29-difluoro-6,10,10,12-tetramethyl-13-oxo-25-oxa-3,12,20,31-tetrazapentacyclo[24.3.1.12,5.016,24.017,21]hentriaconta-1(30),2,4,16,18,21,23,26,28-nonaen-6-yl)phenyl]-N-(2-hydroxyethoxy)propanamide] | B (a value above 5 °C and less than or equal to 10 °C is marked “B”) | A (a TECC value less than 3 is marked “A”) |
| CON(C)C(=O)CCc1cccc(C2(C)CCCC(C)(C)CN(C)C(=O)CCc3c(c(F)cc4[nH]ccc34)Oc3ccc(F)c(c3)-c3ncc2[nH]3)c1 (single isomer, unassigned) [Compound 60A, 3-[3-(23,29-difluoro-6,10,10,12-tetramethyl-13-oxo-25-oxa-3,12,20,31-tetrazapentacyclo-[24.3.1.12,5.016,24.017,21]hentriaconta-1(30),2,4,16,18,21,23,26,28-nonaen-6-yl)phenyl]-N-methoxy-N-methyl-propanamide] | A (an ΔTagg value less than or equal to 5 °C is marked “A”) | A (a TECC value less than 3 is marked “A”) |
| CON(C)C(=O)CCc1cccc(C2(C)CCCC(C)(C)CN(C)C(=O)CCc3c(c(F)cc4[nH]ccc34)Oc3ccc(F)c(c3)-c3ncc2[nH]3)c1 (single isomer, unassigned) [Compound 60B, 3-[3-(23,29-difluoro-6,10,10,12-tetramethyl-13-oxo-25-oxa-3,12,20,31-tetrazapentacyclo-[24.3.1.12,5.016,24.017,21]hentriaconta-1(30),2,4,16,18,21,23,26,28-nonaen-6-yl)phenyl]-N-methoxy-N-methyl-propanamide] | B (a value above 5 °C and less than or equal to 10 °C is marked “B”) | B (a value between 3 and 6 is marked “B”) |
| CCOC(=O)Cc1cccc(C2(C)CCCC(C)(C)CN(C)C(=O)CCc3c(c(F)cc4[nH]ccc34)Oc3ccc(F)c(c3)-c3ncc2[nH]3)c1 (single isomer, unassigned) [Compound 64A, ethyl 2-[3-(23,29-difluoro-6,10,10,12-tetramethyl-13-oxo-25-oxa-3,12,20,31-tetrazapentacyclo-[24.3.1.12,5.016,24.017,21]hentriaconta-1(30),2,4,16,18,21,23,26,28-nonaen-6-yl)phenyl]acetate] | A (an ΔTagg value less than or equal to 5 °C is marked “A”) | A (a TECC value less than 3 is marked “A”) |
